The results in this text go back to ChEMBL document CHEMBL1201862, “PubChem BioAssay data set” (2004).

Assay in all cases: NCI anticancer screen, dose series, 48 h
Assay [1] concerns SK-OV-3.
For assay [2], the system named is SK-MEL-2.
In assay [3] the test system is MDA-MB-231.
Assay [4] has as its system BT-549.
In assay [5] the test system is SNB-75.
Assay [6] relates to EKVX.
Assay [7] has as its system SN12C.
Assay [8] has as its system OVCAR-5.
In assay [9] the test system is RPMI-8226.
The subject of assay [10] is HOP-62.
Assay [11] deals with OVCAR-8.
Assay [12] concerns UACC-257.
Assay [13] relates to SK-MEL-28.
In assay [14] the test system is ACHN.
Assay [15] relates to T47D.
Assay [16] has as its system A549.
Assay [17] deals with RXF 393.
For assay [18], the system named is SW-620.
Assay [19] relates to HT-29.
Assay [20] deals with HL-60.

The structures appear in SMILES notation.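 Cultured in 96-well plates, cells were exposed to test compound for 48 hours across five concentrations. Abbreviation: GI50, concentration required for 50% inhibition of growth.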 Calls of active or inactive are those of the source. Cut-off read from the data, not from the text of the source: active = GI50 up to about 1.1 µM and inactive = higher. Bounds are passed on as bounds.

For `Cc1c(N2CCCC2)cc2c(c1NC(=O)c1ccccc1Cl)C(C)(C)CC2(C)C`, the GI50 in assay [1] is 13.1 µM (inactive); in assay [2], 16.3 µM (inactive); in assay [3], 15.4 µM (inactive); in assay [4], 17.8 µM (inactive); in assay [5], 15.5 µM (inactive); in assay [6], 14.5 µM (inactive). Besides, the GI50 in assay [7] was 16.2 µM (inactive); in assay [8], 18 µM (inactive); in assay [9], 12.9 µM (inactive); in assay [10] it was 14.2 µM (inactive); in [11], 16 µM (inactive); in [12], 11.7 µM (inactive). Also, the GI50 was 17.6 µM (inactive) in assay [13]; 15 µM (inactive) in assay [14]; 11.5 µM (inactive) in assay [15]; 12.9 µM (inactive) in assay [16]; 14.3 µM (inactive) in assay [17]; 16 µM (inactive) in assay [18]. The GI50 in assay [19] is 14.3 µM (inactive).

For the compound `C=C1CC2(CC(c3ccccc3Cl)OC(c3ccccc3Cl)C2)OC1=O` (stereo unspecified), the GI50 was 6.87 µM (inactive) in assay [1]; 3.43 µM (inactive) in assay [2]; 1.85 µM (inactive) in assay [3]; 1.05 µM (active) in [20]; 2.02 µM (inactive) in [4]; 3.17 µM (inactive) in assay [5]. For the same compound, the GI50 is 8.34 µM (inactive) in [6]; 2.37 µM (inactive) in [7]; 8.73 µM (inactive) in assay [8]; 0.752 µM (active) in assay [9]; 8.05 µM (inactive) in assay [10]; 2.11 µM (inactive) in [11]. Further, the GI50 in assay [12] is 2.08 µM (inactive); in [13], 1.87 µM (inactive); in assay [14] it was 4.51 µM (inactive); in assay [15], 1.68 µM (inactive); in assay [16], 7.74 µM (inactive); in [17], 2.12 µM (inactive). Moreover, the GI50 is 1.98 µM (inactive) in assay [18] and 2.55 µM (inactive) in [19].

With `COC(=O)c1ccc(/C=C2\Oc3ccccc3C2=O)cc1`, the GI50 in [1] was > 100 µM (inactive); in assay [3] it was > 100 µM (inactive); in assay [20], 16.4 µM (inactive); in assay [4], > 100 µM (inactive); in assay [5], > 100 µM (inactive); in assay [6], > 100 µM (inactive). In addition, the GI50 in assay [7], in [9], in assay [10], in assay [11], in assay [12] and in [13] was > 100 µM (inactive) each time. Besides, the GI50 in [14], in assay [15], in assay [16], in [17], in assay [18] and in [19] was > 100 µM (inactive) in each case.

Turning to `CC(C)NC(=O)OCc1c(COC(=O)NC(C)C)n(C)c2c1ccc1cc(Cl)c(Cl)cc12`, the GI50 was 21.6 µM (inactive) in assay [1]; 17.3 µM (inactive) in assay [2]; 12.7 µM (inactive) in [3]; 15.2 µM (inactive) in assay [4]; 13.4 µM (inactive) in assay [5]; 14.8 µM (inactive) in assay [6]. Further, the GI50 in assay [8] was 15.4 µM (inactive); in assay [9], 10.3 µM (inactive); in assay [10] it was 14.7 µM (inactive); in [11] it was 11.6 µM (inactive); in assay [12], 15.7 µM (inactive); in assay [14] it was 11.7 µM (inactive). Also, the GI50 in assay [15] is 5.82 µM (inactive); in [16], 19.5 µM (inactive); in assay [17], 12.2 µM (inactive); in [18] it was 11.3 µM (inactive); in assay [19], 15.9 µM (inactive).

For the compound `CCCN1CC=C(c2cc(C(=O)OCC)[nH]c2-c2cc(C)no2)C1=O`, the GI50 in assay [1] was > 100 µM (inactive); in [2], > 100 µM (inactive); in assay [3], > 100 µM (inactive); in assay [20], > 100 µM (inactive); in assay [4], > 100 µM (inactive); in [5] it was 30.8 µM (inactive). For the same compound, the GI50 is > 100 µM (inactive) in assay [6]; > 100 µM (inactive) in [7]; > 100 µM (inactive) in [8]; 75 µM (inactive) in assay [9]; > 100 µM (inactive) in assay [10]; > 100 µM (inactive) in assay [11]. Moreover, the GI50 in assay [12], in assay [13], in assay [15], in assay [16], in assay [17] and in assay [18] was > 100 µM (inactive) each time. In addition, the GI50 in assay [19] was > 100 µM (inactive).

Turning to `O=C(NO)NCCCl`, the GI50 in assay [1], in assay [2], in [3], in assay [20], in assay [4] and in [5] was > 100 µM (inactive) in each case. The GI50 in [6], in assay [7], in [8], in assay [9], in assay [10] and in assay [11] was > 100 µM (inactive) each time. The GI50 in [12], in assay [14], in assay [15], in assay [16], in assay [17] and in [18] was > 100 µM (inactive) throughout. Moreover, in assay [19], the GI50 was > 100 µM (inactive).

Turning to `Cc1ccc(S(=O)(=O)[C@@H](Cl)[C@H]2N=C(Cl)NN=C2c2ccccc2)cc1`, the GI50 was 32.6 µM (inactive) in [1]; 14.8 µM (inactive) in assay [2]; 20.1 µM (inactive) in assay [3]; 23.9 µM (inactive) in assay [4]; 27.9 µM (inactive) in assay [5]; 37.1 µM (inactive) in [6]. Besides, the GI50 was 21.7 µM (inactive) in [7]; 85.9 µM (inactive) in assay [8]; 27.6 µM (inactive) in [9]; 20 µM (inactive) in assay [10]; 21.1 µM (inactive) in assay [11]; 20.6 µM (inactive) in assay [12]. Besides, the GI50 in assay [13] is 19.4 µM (inactive); in assay [14], 33.7 µM (inactive); in assay [15], 28.8 µM (inactive); in [16], 34.1 µM (inactive); in [17], 18.6 µM (inactive); in [18], 17.2 µM (inactive). Also, the GI50 in assay [19] was 33.5 µM (inactive).

As to `c1cc(-c2cnc(-c3ccc4c(c3)CCCO4)o2)ccn1`, the GI50 in [1] is 20.3 µM (inactive); in assay [2], 11.9 µM (inactive); in assay [3], 16.2 µM (inactive); in assay [20], 4.33 µM (inactive); in [4], 15.2 µM (inactive); in assay [5], 12.2 µM (inactive). Besides, the GI50 in [6] is 17.7 µM (inactive); in assay [7], 18.5 µM (inactive); in assay [8] it was 13.6 µM (inactive); in assay [9] it was 6.24 µM (inactive); in assay [10] it was 16.5 µM (inactive); in assay [11] it was 13.8 µM (inactive). Also, the GI50 is 15.1 µM (inactive) in [12]; 18.1 µM (inactive) in assay [13]; 14 µM (inactive) in [14]; 16.6 µM (inactive) in assay [15]; 16.2 µM (inactive) in [16]; 13.5 µM (inactive) in assay [17]. Also, in [19], the GI50 was 16.8 µM (inactive).

For `C=CCn1c(-c2ccc(-c3cs/c(=N\N=O)n3CC=C)cc2)cs/c1=N\N=O`, the GI50 in assay [1] is 40.7 µM (inactive); in assay [2] it was > 100 µM (inactive); in [3] it was 23.4 µM (inactive); in assay [20], > 100 µM (inactive); in assay [4], > 100 µM (inactive); in [5], 20.9 µM (inactive). In addition, the GI50 is > 100 µM (inactive) in [6]; 86.9 µM (inactive) in [7]; > 100 µM (inactive) in assay [8]; 64.3 µM (inactive) in assay [10]; 88.1 µM (inactive) in assay [11]; > 100 µM (inactive) in assay [12]. Also, the GI50 in assay [13] was > 100 µM (inactive); in assay [14], > 100 µM (inactive); in assay [15] it was > 100 µM (inactive); in assay [16] it was > 100 µM (inactive); in assay [17], 19.1 µM (inactive); in assay [18], > 100 µM (inactive). Besides, in [19], the GI50 was > 100 µM (inactive).

Consider `Cc1sc2nc3n(c(=O)c2c1C)N=CN(c1ccccc1)C3`, for which the GI50 in assay [1] was > 100 µM (inactive); in assay [2] it was > 100 µM (inactive); in assay [3], 68.1 µM (inactive); in assay [4], > 100 µM (inactive); in assay [5], 35.9 µM (inactive); in assay [6], > 100 µM (inactive). The GI50 is > 100 µM (inactive) in assay [7]; > 100 µM (inactive) in [8]; > 100 µM (inactive) in assay [9]; 20.4 µM (inactive) in assay [10]; 68.9 µM (inactive) in [11]; > 100 µM (inactive) in assay [12]. Moreover, the GI50 in assay [13] is > 100 µM (inactive); in assay [14], 59.3 µM (inactive); in assay [15], 79.8 µM (inactive); in assay [16], > 100 µM (inactive); in assay [17] it was 37.1 µM (inactive); in [18] it was > 100 µM (inactive). Besides, in assay [19], the GI50 is > 100 µM (inactive).

With `O=C1/C(=C\c2ccc([N+](=O)[O-])cc2)N(S(=O)(=O)c2ccccc2)c2ncccc21`, the GI50 in [1] is 0.0212 µM (active); in assay [3], 16.1 µM (inactive); in assay [20], 2.18 µM (inactive); in [4] it was 18.3 µM (inactive); in [5] it was 14.5 µM (inactive); in assay [6], > 10 µM (inactive). In addition, the GI50 was 16.9 µM (inactive) in assay [7]; 5.43 µM (inactive) in assay [9]; 18.7 µM (inactive) in assay [10]; 20.9 µM (inactive) in assay [11]; 21.8 µM (inactive) in assay [12]; 20.7 µM (inactive) in assay [13]. The GI50 in assay [14] was 15.9 µM (inactive); in assay [15], 13.4 µM (inactive); in assay [16], 40.2 µM (inactive); in assay [17], 16.6 µM (inactive); in assay [18] it was 14.9 µM (inactive); in assay [19], 16.6 µM (inactive).
